For the first experiment, the target named is T1, human cathepsin S (CatS) (Homo sapiens, UniProt P25774).
T1 construct: made in house; host or cells: baculovirus system (insect cells)
T1 sequence (P25774 115-331): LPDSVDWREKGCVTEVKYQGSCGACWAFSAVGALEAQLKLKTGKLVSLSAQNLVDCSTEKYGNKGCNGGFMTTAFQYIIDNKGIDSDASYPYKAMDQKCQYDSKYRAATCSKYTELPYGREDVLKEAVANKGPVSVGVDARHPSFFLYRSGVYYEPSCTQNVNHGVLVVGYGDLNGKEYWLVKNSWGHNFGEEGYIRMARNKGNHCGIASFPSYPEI
In words: Recombinant human cathepsin S (CatS) fluorogenic substrate inhibition assay. It counts as biochemical.
Conditions: not given
The protocol: Recombinant human cathepsin S (CatS) was expressed in the baculovirus system and purified in one step with a thiopropyl-sepharose column. […] The assay is run in 150 mM sodium acetate pH 5.0 containing 1.5 mM DTT and 150 mM NaCl. […] Measurements are taken every min for 20 min. The rate is calculated from the slope of the increase in fluorescence and the percent inhibition is calculated from this.
What is called IC50 is the concentration needed to halve the response being measured. As for `COc1ccccc1C1CCN(CC(O)Cn2nc(-c3ccc(C(F)(F)F)c(CNC(=O)CC(C)C)c3)c3c2CCN(S(C)(=O)=O)C3)CC1` (centres unmarked) [Example 259, N-[5-(1-{2-Hydroxy-3-[4-(2-methoxy-phenyl)-piperidin-1-yl]-propyl}-5-methanesulfonyl-4,5,6,7-tetrahydro-1H-pyrazolo[4,3-c]pyridin-3-yl)-2-trifluoromethyl-benzyl]-3-methyl-butyramide], the IC50 came to 20 nM.

Still in this experiment, the particulars now being: recombinant human CatS, 10 μM Z-Valine-Valine-Arginine-AMC, pH 5.0; average of results obtained; read-out: CatS IC50.
As for `CC(C)CC(=O)NCc1cc(-c2nn(CC(O)CN3CCC(N4CCCC4)CC3)c3c2CN(S(C)(=O)=O)CC3)ccc1C(F)(F)F` (centres unmarked) [Example 248, N-(5-{1-[2-Hydroxy-3-(4-pyrrolidin-1-yl-piperidin-1-yl)-propyl]-5-methanesulfonyl-4,5,6,7-tetrahydro-1H-pyrazolo[4,3-c]pyridin-3-yl}-2-trifluoromethyl-benzyl)-3-methyl-butyramide], the IC50 was 120 nM.
Consider `CC(C)CC(=O)NCc1cc(-c2nn(CC(O)CN3CCC(N4CCOC4=O)CC3)c3c2CN(S(C)(=O)=O)CC3)ccc1C(F)(F)F` (centres unmarked) [Example 252, N-[5-(1-{2-Hydroxy-3-[4-(2-oxo-oxazolidin-3-yl)-piperidin-1-yl]-propyl}-5-methanesulfonyl-4,5,6,7-tetrahydro-1H-pyrazolo[4,3-c]pyridin-3-yl)-2-trifluoromethyl-benzyl]-3-methyl-butyramide], for which the IC50 was 140 nM.
Take `CC(C)CC(=O)NCc1cc(-c2nn(CC(O)CN3CCC(N4CC(O)CC4=O)CC3)c3c2CN(S(C)(=O)=O)CC3)ccc1C(F)(F)F` (centres unmarked) [Example 253, N-[5-(1-{2-Hydroxy-3-[4-(4-hydroxy-2-oxo-pyrrolidin-1-yl)-piperidin-1-yl]-propyl}-5-methanesulfonyl-4,5,6,7-tetrahydro-1H-pyrazolo[4,3-c]pyridin-3-yl)-2-trifluoromethyl-benzyl]-3-methyl-butyramide]: the IC50 is 90 nM.
Same read-out and setting: the figure for `CC(C)CC(=O)NCc1cc(-c2nn(CC(O)CN3CCC(N4CCOCC4)CC3)c3c2CN(S(C)(=O)=O)CC3)ccc1C(F)(F)F` (centres unmarked) [Example 254, N-(5-{1-[2-Hydroxy-3-(4-morpholin-4-yl-piperidin-1-yl)-propyl]-5-methanesulfonyl-4,5,6,7-tetrahydro-1H-pyrazolo[4,3-c]pyridin-3-yl}-2-trifluoromethyl-benzyl)-3-methyl-butyramide] is 120 nM.
In the case of `CC(C)CC(=O)NCc1cc(-c2nn(CC(O)CN3CCC(c4nnnn4Cc4ccccc4)CC3)c3c2CN(S(C)(=O)=O)CC3)ccc1C(F)(F)F` (centres unmarked) [Example 256, N-[5-(1-{3-[4-(1-Benzyl-1H-tetrazol-5-yl)-piperidin-1-yl]-2-hydroxy-propyl}-5-methanesulfonyl-4,5,6,7-tetrahydro-1H-pyrazolo[4,3-c]pyridin-3-yl)-2-trifluoromethyl-benzyl]-3-methyl-butyramide], the IC50 came to 70 nM.
For `CC(C)CC(=O)NCc1cc(-c2nn(CC(O)CN3CCC(c4ccccn4)CC3)c3c2CN(S(C)(=O)=O)CC3)ccc1C(F)(F)F` (centres unmarked) [Example 257, N-(5-{1-[2-Hydroxy-3-(3′,4′,5′,6′-tetrahydro-2′H-[2,4′]bipyridinyl-1′-yl)-propyl]-5-methanesulfonyl-4,5,6,7-tetrahydro-1H-pyrazolo[4,3-c]pyridin-3-yl}-2-trifluoromethyl-benzyl)-3-methyl-butyramide], the concentration for half-maximal inhibition (IC50) is 10 nM.
Regarding `CC(C)CC(=O)NCc1cc(-c2nn(CC(O)CN3CCC(O)(c4ccccn4)CC3)c3c2CN(S(C)(=O)=O)CC3)ccc1C(F)(F)F` (centres unmarked) [Example 258, N-(5-{1-[2-Hydroxy-3-(4′-hydroxy-3′,4′,5′,6′-tetrahydro-2′H-[2,4′]bipyridinyl-1′-yl)-propyl]-5-methanesulfonyl-4,5,6,7-tetrahydro-1H-pyrazolo[4,3-c]pyridin-3-yl}-2-trifluoromethyl-benzyl)-3-methyl-butyramide], the IC50 came out at 40 nM.
Take `CC(C)CC(=O)NCc1cc(-c2nn(CC(O)CN3CCC(C(=O)N4CCOCC4)CC3)c3c2CN(S(C)(=O)=O)CC3)ccc1C(F)(F)F` (centres unmarked) [Example 260, N-[5-(1-{2-Hydroxy-3-[4-(morpholine-4-carbonyl)-piperidin-1-yl]-propyl}-5-methanesulfonyl-4,5,6,7-tetrahydro-1H-pyrazolo[4,3-c]pyridin-3-yl)-2-trifluoromethyl-benzyl]-3-methyl-butyramide]: the IC50 was found to be 120 nM.
Consider `CC(C)=CC(=O)NCc1cc(-c2nn(CC(O)CN3CCN(c4ncccc4Cl)CC3)c3c2CN(S(C)(=O)=O)CC3)ccc1C(F)(F)F` (centres unmarked) [Example 262, 3-Methyl-but-2-enoic acid 5-(1-{3-[4-(3-chloro-pyridin-2-yl)-piperazin-1-yl]-2-hydroxy-propyl}-5-methanesulfonyl-4,5,6,7-tetrahydro-1H-pyrazolo[4,3-c]pyridin-3-yl)-2-trifluoromethyl-benzylamide], for which the half-inhibitory concentration (IC50) is 10 nM.
For the compound `CC(C)=CC(=O)NCc1cc(-c2nn(CC(O)CN3CCC(c4ccccn4)CC3)c3c2CN(S(C)(=O)=O)CC3)ccc1C(F)(F)F` (centres unmarked) [Example 263, 3-Methyl-but-2-enoic acid 5-{1-[2-hydroxy-3-(3′,4′,5′,6′-tetrahydro-2′H-[2,4′]bipyridinyl-1′-yl)-propyl]-5-methanesulfonyl-4,5,6,7-tetrahydro-1H-pyrazolo[4,3-c]pyridin-3-yl}-2-trifluoromethyl-benzylamide], the IC50 turned out to be 10 nM.
As for `COc1ccccc1C1CCN(CC(O)Cn2nc(-c3ccc(C(F)(F)F)c(CNC(=O)C=C(C)C)c3)c3c2CCN(S(C)(=O)=O)C3)CC1` (centres unmarked) [Example 264, 3-Methyl-but-2-enoic acid 5-(1-{2-hydroxy-3-[4-(2-methoxy-phenyl)-piperidin-1-yl]-propyl}-5-methanesulfonyl-4,5,6,7-tetrahydro-1H-pyrazolo[4,3-c]pyridin-3-yl)-2-trifluoromethyl-benzylamide], the half-inhibitory concentration (IC50) was found to be 10 nM.
As for `CC(C)=CC(=O)NCc1cc(-c2nn(CC(O)CN3CCN(c4c(Cl)cncc4Cl)CC3)c3c2CN(S(C)(=O)=O)CC3)ccc1C(F)(F)F` (centres unmarked) [Example 265, 3-Methyl-but-2-enoic acid 5-(1-{3-[4-(3,5-dichloro-pyridin-4-yl)-piperazin-1-yl]-2-hydroxy-propyl}-5-methanesulfonyl-4,5,6,7-tetrahydro-1H-pyrazolo[4,3-c]pyridin-3-yl)-2-trifluoromethyl-benzylamide], the half-inhibitory concentration (IC50) was found to be 10 nM.
Take `CC(C)=CC(=O)NCc1cc(-c2nn(CC(O)CN3CCC(O)(c4ccccn4)CC3)c3c2CN(S(C)(=O)=O)CC3)ccc1C(F)(F)F` (centres unmarked) [Example 266, 3-Methyl-but-2-enoic acid 5-{1-[2-hydroxy-3-(4′-hydroxy-3′,4′,5′,6′-tetrahydro-2′H-[2,4′]bipyridinyl-1′-yl)-propyl]-5-methanesulfonyl-4,5,6,7-tetrahydro-1H-pyrazolo[4,3-c]pyridin-3-yl}-2-trifluoromethyl-benzylamide]: the 50% inhibitory concentration (IC50) is 10 nM.
The same measure, in the same setting: the figure for `CC(C)=CC(=O)NCc1cc(-c2nn(CC(O)CN3CCC(n4cn[nH]c4=O)CC3)c3c2CN(S(C)(=O)=O)CC3)ccc1C(F)(F)F` (centres unmarked) [Example 268, 3-Methyl-but-2-enoic acid 5-(1-{2-hydroxy-3-[4-(5-oxo-1,5-dihydro-[1,2,4]triazol-4-yl)-piperidin-1-yl]-propyl}-5-methanesulfonyl-4,5,6,7-tetrahydro-1H-pyrazolo[4,3-c]pyridin-3-yl)-2-trifluoromethyl-benzylamide] is 10 nM; for `CC(C)=CC(=O)NCc1cc(-c2nn(CC(O)CN3CCC(c4nc(=O)[nH][nH]4)CC3)c3c2CN(S(C)(=O)=O)CC3)ccc1C(F)(F)F` (centres unmarked) [Example 270, 3-Methyl-but-2-enoic acid 5-(1-{2-hydroxy-3-[4-(5-oxo-2,5-dihydro-1H-[1,2,4]triazol-3-yl)-piperidin-1-yl]-propyl}-5-methanesulfonyl-4,5,6,7-tetrahydro-1H-pyrazolo[4,3-c]pyridin-3-yl)-2-trifluoromethyl-benzylamide] it is 10 nM; for `CC(C)=CC(=O)NCc1cc(-c2nn(CC(O)CN3CCC(c4c[nH]c5ncccc45)CC3)c3c2CN(S(C)(=O)=O)CC3)ccc1C(F)(F)F` (centres unmarked) [Example 272, 3-Methyl-but-2-enoic acid 5-(1-{2-hydroxy-3-[4-(1H-pyrrolo[2,3-b]pyridin-3-yl)-piperidin-1-yl]-propyl}-5-methanesulfonyl-4,5,6,7-tetrahydro-1H-pyrazolo[4,3-c]pyridin-3-yl)-2-trifluoromethyl-benzylamide] it is 20 nM.
Turning to `CC(C)=CC(=O)NCc1cc(-c2nn(CC(O)CN3CCC(c4ccccc4)CC3)c3c2CN(S(C)(=O)=O)CC3)ccc1C(F)(F)F` (centres unmarked) [Example 274, 3-Methyl-but-2-enoic acid 5-{1-[2-hydroxy-3-(4-phenyl-piperidin-1-yl)-propyl]-5-methanesulfonyl-4,5,6,7-tetrahydro-1H-pyrazolo[4,3-c]pyridin-3-yl}-2-trifluoromethyl-benzylamide], the concentration for half-maximal inhibition (IC50) is 10 nM.
For `CC(C)=CC(=O)NCc1cc(-c2nn(CC(O)CN3CCC(c4cccc(O)c4)CC3)c3c2CN(S(C)(=O)=O)CC3)ccc1C(F)(F)F` (centres unmarked) [Example 275, 3-Methyl-but-2-enoic acid 5-(1-{2-hydroxy-3-[4-(3-hydroxy-phenyl)-piperidin-1-yl]-propyl}-5-methanesulfonyl-4,5,6,7-tetrahydro-1H-pyrazolo[4,3-c]pyridin-3-yl)-2-trifluoromethyl-benzylamide], the half-inhibitory concentration (IC50) was determined as 10 nM.
`CS(=O)(=O)N1CCc2c(c(-c3ccc(C(F)(F)F)c(CNC(=O)C4CC4)c3)nn2CC(O)CN2CCC(N3CCCC3=O)CC2)C1` (centres unmarked) [Example 276, Cyclopropanecarboxylic acid 5-(1-{2-hydroxy-3-[4-(2-oxo-pyrrolidin-1-yl)-piperidin-1-yl]-propyl}-5-methanesulfonyl-4,5,6,7-tetrahydro-1H-pyrazolo[4,3-c]pyridin-3-yl)-2-trifluoromethyl-benzylamide]: the IC50 is 90 nM.

These data come from patent publication US20080269241A1, “BICYCLIC AMINOPROPYL TETRAHYDRO-PYRAZOLO-PYRIDINE MODULATORS OF CATHEPSIN S” (priority 2007, published 2008).
